Data from the NIST ThermoML archive (doi:10.1016/j.jct.2013.10.038).
Numbers after ± are expanded uncertainties.

Assays:
[1] = activity coefficient (dimensionless); of the first substance listed, at infinite dilution; xn = mol fraction of the nth substance listed; settings: 101 kPa, Liquid, Chromatography, x1 = 0
[2] = 101.33 kPa, Liquid, Pycnometric method

Row | Compound | activity coefficient ([1]; 303.15 K) | activity coefficient ([1]; 313.15 K) | activity coefficient ([1]; 323.15 K) | activity coefficient ([1]; 333.15 K) | activity coefficient ([1]; 343.15 K) | activity coefficient ([1]; 353.15 K) | activity coefficient ([1]; 363.15 K) | mass density ([2]; 293.15 K) | mass density ([2]; 303.15 K) | mass density ([2]; 313.15 K) | mass density ([2]; 323.15 K) | mass density ([2]; 333.15 K) | mass density ([2]; 343.15 K)
1 | ClCCCl [1,2-dichloroethane] + CCCCCCn1cc[n+](C)c1.O=C([O-])C(F)(F)F | 0.62 ± 0.07 | 0.75 ± 0.08 | 0.9 ± 0.09 | 1.1 ± 0.11 | 1.26 ± 0.13 | 1.62 ± 0.17 | 1.67 ± 0.17 |  |  |  |  |  | 
2 | Cc1ccccc1C [1,2-dimethylbenzene] + CCCCCCn1cc[n+](C)c1.O=C([O-])C(F)(F)F | 3.54 ± 0.37 | 3.67 ± 0.39 | 3.83 ± 0.4 | 3.98 ± 0.42 | 4.1 ± 0.43 | 4.13 ± 0.43 | 4.53 ± 0.48 |  |  |  |  |  | 
3 | Cc1cccc(C)c1 [1,3-dimethylbenzene] + CCCCCCn1cc[n+](C)c1.O=C([O-])C(F)(F)F | 4.19 ± 0.44 | 4.25 ± 0.45 | 4.34 ± 0.46 | 4.39 ± 0.46 | 4.42 ± 0.46 | 4.53 ± 0.48 | 4.56 ± 0.48 |  |  |  |  |  | 
4 | Cc1ccc(C)cc1 [1,4-dimethylbenzene] + CCCCCCn1cc[n+](C)c1.O=C([O-])C(F)(F)F | 4.12 ± 0.43 | 4.18 ± 0.44 | 4.24 ± 0.45 | 4.29 ± 0.45 | 4.32 ± 0.45 | 4.42 ± 0.46 | 4.43 ± 0.47 |  |  |  |  |  | 
5 | C1COCCO1 [1,4-dioxane] + CCCCCCn1cc[n+](C)c1.O=C([O-])C(F)(F)F | 1.91 ± 0.2 | 1.92 ± 0.2 | 1.93 ± 0.2 | 1.94 ± 0.2 | 1.95 ± 0.2 | 1.95 ± 0.2 | 1.97 ± 0.21 |  |  |  |  |  | 
6 | CCCCCCn1cc[n+](C)c1.O=C([O-])C(F)(F)F [1-hexyl-3-methylimidazolium trifluoroacetate] |  |  |  |  |  |  |  | 1153.5 ± 1.1 kg/m3 | 1146.6 ± 1.1 kg/m3 | 1140.7 ± 1.1 kg/m3 | 1134.4 ± 1.1 kg/m3 | 1127.8 ± 1.1 kg/m3 | 1121.6 ± 1.1 kg/m3
7 | CC(C)CC(C)(C)C [2,2,4-trimethylpentane] + CCCCCCn1cc[n+](C)c1.O=C([O-])C(F)(F)F |  |  | 46.8 ± 4.9 |  |  |  |  |  |  |  |  |  | 
8 | CC(C)CO [2-methyl-1-propanol] + CCCCCCn1cc[n+](C)c1.O=C([O-])C(F)(F)F |  |  | 0.29 ± 0.04 | 0.3 ± 0.04 | 0.3 ± 0.04 | 0.31 ± 0.04 | 0.31 ± 0.04 |  |  |  |  |  | 
9 | CC(C)=O [acetone] + CCCCCCn1cc[n+](C)c1.O=C([O-])C(F)(F)F | 1.69 ± 0.18 | 1.69 ± 0.18 | 1.68 ± 0.18 | 1.68 ± 0.18 | 1.67 ± 0.17 | 1.67 ± 0.17 | 1.67 ± 0.17 |  |  |  |  |  | 
10 | CC#N [acetonitrile] + CCCCCCn1cc[n+](C)c1.O=C([O-])C(F)(F)F | 1.01 ± 0.1 | 1.05 ± 0.11 | 1.11 ± 0.11 | 1.16 ± 0.12 | 1.22 ± 0.13 | 1.28 ± 0.13 | 1.32 ± 0.14 |  |  |  |  |  | 
11 | c1ccccc1 [benzene] + CCCCCCn1cc[n+](C)c1.O=C([O-])C(F)(F)F | 2.05 ± 0.22 | 2.07 ± 0.22 | 2.09 ± 0.22 | 2.1 ± 0.22 | 2.12 ± 0.22 | 2.13 ± 0.22 | 2.14 ± 0.22 |  |  |  |  |  | 
12 | Brc1ccccc1 [bromobenzene] + CCCCCCn1cc[n+](C)c1.O=C([O-])C(F)(F)F | 2.18 ± 0.23 | 2.2 ± 0.23 | 2.24 ± 0.24 | 2.29 ± 0.24 | 2.32 ± 0.24 | 2.36 ± 0.25 | 2.41 ± 0.25 |  |  |  |  |  | 
13 | Clc1ccccc1 [chlorobenzene] + CCCCCCn1cc[n+](C)c1.O=C([O-])C(F)(F)F | 2.27 ± 0.24 | 2.26 ± 0.24 | 2.24 ± 0.24 | 2.22 ± 0.23 | 2.2 ± 0.23 | 2.2 ± 0.23 | 2.2 ± 0.23 |  |  |  |  |  | 
14 | C1CCCCC1 [cyclohexane] + CCCCCCn1cc[n+](C)c1.O=C([O-])C(F)(F)F |  |  | 16.9 ± 1.8 |  |  |  |  |  |  |  |  |  | 
15 | C1=CCCCC1 [cyclohexene] + CCCCCCn1cc[n+](C)c1.O=C([O-])C(F)(F)F |  |  | 9.6 ± 1 |  |  |  |  |  |  |  |  |  | 
16 | ClCCl [dichloromethane] + CCCCCCn1cc[n+](C)c1.O=C([O-])C(F)(F)F | 0.64 ± 0.07 | 0.65 ± 0.07 | 0.67 ± 0.07 | 0.68 ± 0.07 | 0.7 ± 0.07 | 0.72 ± 0.08 | 0.73 ± 0.08 |  |  |  |  |  | 

Row | Compound | activity coefficient ([1]; 303.15 K) | activity coefficient ([1]; 313.15 K) | activity coefficient ([1]; 323.15 K) | activity coefficient ([1]; 333.15 K) | activity coefficient ([1]; 343.15 K) | activity coefficient ([1]; 353.15 K) | activity coefficient ([1]; 363.15 K) | mass density ([2]; 293.15 K) | mass density ([2]; 303.15 K) | mass density ([2]; 313.15 K) | mass density ([2]; 323.15 K) | mass density ([2]; 333.15 K) | mass density ([2]; 343.15 K)
17 | CCO [ethanol] + CCCCCCn1cc[n+](C)c1.O=C([O-])C(F)(F)F | 0.21 ± 0.03 | 0.22 ± 0.03 | 0.22 ± 0.03 | 0.23 ± 0.04 | 0.24 ± 0.04 | 0.26 ± 0.04 | 0.27 ± 0.04 |  |  |  |  |  | 
18 | CCOC(C)=O [ethyl acetate] + CCCCCCn1cc[n+](C)c1.O=C([O-])C(F)(F)F | 2.64 ± 0.28 | 2.8 ± 0.29 | 2.91 ± 0.31 | 3.02 ± 0.32 | 3.12 ± 0.33 | 3.15 ± 0.33 | 3.44 ± 0.36 |  |  |  |  |  | 
19 | CCc1ccccc1 [ethylbenzene] + CCCCCCn1cc[n+](C)c1.O=C([O-])C(F)(F)F | 4.1 ± 0.43 | 4.16 ± 0.44 | 4.22 ± 0.44 | 4.25 ± 0.45 | 4.32 ± 0.45 | 4.34 ± 0.46 | 4.36 ± 0.46 |  |  |  |  |  | 
20 | CCCCCCC [heptane] + CCCCCCn1cc[n+](C)c1.O=C([O-])C(F)(F)F |  |  | 27 ± 2.8 |  |  |  |  |  |  |  |  |  | 
21 | CCCCCC [hexane] + CCCCCCn1cc[n+](C)c1.O=C([O-])C(F)(F)F |  |  | 29 ± 3 |  |  |  |  |  |  |  |  |  | 
22 | CO [methanol] + CCCCCCn1cc[n+](C)c1.O=C([O-])C(F)(F)F | 0.1 ± 0.03 | 0.11 ± 0.03 | 0.12 ± 0.03 | 0.13 ± 0.03 | 0.13 ± 0.03 | 0.16 ± 0.03 | 0.16 ± 0.03 |  |  |  |  |  | 
23 | CC1CCCCC1 [methylcyclohexane] + CCCCCCn1cc[n+](C)c1.O=C([O-])C(F)(F)F |  |  | 19.8 ± 2.1 |  |  |  |  |  |  |  |  |  | 
24 | CCCCCCCCC [nonane] + CCCCCCn1cc[n+](C)c1.O=C([O-])C(F)(F)F |  |  | 64.2 ± 6.8 |  |  |  |  |  |  |  |  |  | 
25 | CCCCCCCC [octane] + CCCCCCn1cc[n+](C)c1.O=C([O-])C(F)(F)F |  |  | 49.6 ± 5.2 |  |  |  |  |  |  |  |  |  | 
26 | CCCO [propan-1-ol] + CCCCCCn1cc[n+](C)c1.O=C([O-])C(F)(F)F |  | 0.24 ± 0.04 | 0.25 ± 0.04 | 0.26 ± 0.04 | 0.27 ± 0.04 | 0.29 ± 0.04 | 0.31 ± 0.04 |  |  |  |  |  | 
27 | CC(C)O [propan-2-ol] + CCCCCCn1cc[n+](C)c1.O=C([O-])C(F)(F)F | 0.34 ± 0.04 | 0.35 ± 0.04 | 0.36 ± 0.04 | 0.38 ± 0.05 | 0.39 ± 0.05 | 0.4 ± 0.05 | 0.42 ± 0.05 |  |  |  |  |  | 
28 | C=Cc1ccccc1 [styrene] + CCCCCCn1cc[n+](C)c1.O=C([O-])C(F)(F)F | 2.28 ± 0.24 | 2.39 ± 0.25 | 2.46 ± 0.26 | 2.53 ± 0.27 | 2.61 ± 0.27 | 2.68 ± 0.28 | 2.73 ± 0.29 |  |  |  |  |  | 
29 | ClC(Cl)(Cl)Cl [tetrachloromethane] + CCCCCCn1cc[n+](C)c1.O=C([O-])C(F)(F)F | 0.62 ± 0.07 | 0.7 ± 0.07 | 0.8 ± 0.08 | 0.91 ± 0.09 | 1.02 ± 0.1 | 1.19 ± 0.12 | 1.32 ± 0.14 |  |  |  |  |  | 
30 | C1CCOC1 [tetrahydrofuran] + CCCCCCn1cc[n+](C)c1.O=C([O-])C(F)(F)F | 1.95 ± 0.2 | 1.96 ± 0.21 | 1.98 ± 0.21 | 2 ± 0.21 | 2.02 ± 0.21 | 2.02 ± 0.21 | 2.05 ± 0.22 |  |  |  |  |  | 
31 | Cc1ccccc1 [toluene] + CCCCCCn1cc[n+](C)c1.O=C([O-])C(F)(F)F | 2.97 ± 0.31 | 3.02 ± 0.32 | 3.06 ± 0.32 | 3.1 ± 0.33 | 3.14 ± 0.33 | 3.17 ± 0.33 | 3.2 ± 0.34 |  |  |  |  |  | 
32 | ClC(Cl)Cl [trichloromethane] + CCCCCCn1cc[n+](C)c1.O=C([O-])C(F)(F)F | 0.08 ± 0.03 | 0.12 ± 0.03 | 0.22 ± 0.03 | 0.3 ± 0.04 | 0.45 ± 0.05 | 0.68 ± 0.07 | 1.06 ± 0.11 |  |  |  |  |  | 
